pIC50: −log10 of the molar value. Where a name gives a salt, the structure may show the parent alone. Read-outs that look alike come from different tables or passages of the source.
How the values were obtained:
[1] = biological target: T1, central muscarinic M-1 receptors (Rattus norvegicus, UniProt P08482); assay: biochemical; conditions: rat brain homogenate, 1.0 nM 3H-pirenzepine, 60 min at 25 °C; read-out: Binding IC50, 3H-Pirenzepine
T1 sequence (P08482 1-460): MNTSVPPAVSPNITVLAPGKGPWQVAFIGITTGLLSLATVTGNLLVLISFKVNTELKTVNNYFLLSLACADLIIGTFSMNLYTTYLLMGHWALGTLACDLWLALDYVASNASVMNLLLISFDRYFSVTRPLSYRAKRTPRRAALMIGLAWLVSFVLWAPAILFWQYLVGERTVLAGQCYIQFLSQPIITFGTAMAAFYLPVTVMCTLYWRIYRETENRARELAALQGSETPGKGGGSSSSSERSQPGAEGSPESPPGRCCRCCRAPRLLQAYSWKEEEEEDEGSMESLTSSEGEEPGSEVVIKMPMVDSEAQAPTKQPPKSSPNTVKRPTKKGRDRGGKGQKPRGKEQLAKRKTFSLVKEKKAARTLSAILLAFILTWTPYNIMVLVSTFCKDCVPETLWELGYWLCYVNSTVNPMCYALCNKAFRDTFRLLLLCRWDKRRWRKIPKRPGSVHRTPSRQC
Method: ^3 H-pirenzepine binding was performed essentially as described by Watson et al., 1983, the conditions being very much the same as for ^3 H-oxotremorine binding, except that aliquots were incubated with 1.0 nM ^3 H-pirenzepine for 60 min. at 25° C. and that the reaction was stopped by direct filtration followed by 3 washes with 4 ml buffer.

[2] = biological target: central cholinergic receptors; assay: 3H-oxotremorine M binding, rat brain homogenates; conditions: rat brain homogenate, pH 7.4, 40 min at 30 °C; read-out: Binding IC50, 3H-Oxo-M
Method: Briefly, rat brains were homogenized in 100 vol (w/v) 10 mM Na,K-phosphate buffer (pH 7.4) and aliquots incubated with ^3 H-oxotremorine M (84.9 Ci/mmol, NEN) alone or in the presence of test compound in a total volume of 1.5 ml for 40 min. at 30° C. The reaction was stopped by adding 5 ml ice-cold buffer and filtered through Whatman GF/B filters soaked previously in 0.1% polyethylenimin (Sigma) for minimum 30 min. The filters were washed once with the same volume of buffer, transferred to scintillation vials and extracted in scintillation fluid (Pico-fluor 15, Packard) for at least two hours before counted in a liquid scintillation spectrometer (Beckman LS 1800). Non-specific binding was estimated at 10 μM atropine and all estimations made in triplicate. At least two displacement curves were made for each compound tested.

[3] = cited from earlier work
[4] = after peripheral administration; cited from earlier work
[5] = cited from earlier work; remark: listed apart in the source

Compound: C#CCOc1noc2c1CNCCC2C (centres unmarked) [Example 14, 8-Methyl-3-(2-propynyloxy)-5,6,7,8-tetrahydro-4H-isoxazolo 4,5-c azepine, Fumarate]
- pIC50 [1]: 7.80
- pIC50 [2]: 9.03

Compound: CC(C)Oc1noc2c1CNCCC2 [Example 6, 3-Isopropoxy-5,6,7,8-tetrahydro-4H-isoxazolo[4,5-c]azepine Hydrochloride]
- pIC50 [1]: 8.30
- pIC50 [2]: 8.08

Compound: COc1noc2c1CNCC2 [O-Methyl-THPO, reference compound]
- pIC50 [1]: 5.07
- pIC50 [2]: 7.21

Compound: C#CCOc1noc2c1CNCCC2 [Example 9, 3-(2-Propynyloxy)-5,6,7,8-tetrahydro-4H-isoxazolo [4,5-c]azepine Hydrochloride]
- pIC50 [1]: 7.80
- pIC50 [2]: 9.47

Compound: COC(=O)C1=CCCN(C)C1 [Arecoline, methyl 1-methyl-1,2,5,6-tetrahydropyridine-3-carboxylate]
- penetration of the blood-brain barrier ([3]; after peripheral administration): capable of penetrating the BBB after peripheral administration
- central effects [4]: very weak and frequently negligible central effects
- hydrolysis of the ester group in vivo [5]: very rapidly hydrolyzed in vivo
- pIC50 [2]: 8.72

Compound: CCOc1noc2c1CNCCC2 [Example 4, 3-Ethoxy-5,6,7,8-tetrahydro-4H-isoxazolo[4,5-c]azepine Hydrochloride]
- pIC50 [1]: 7.96
- pIC50 [2]: 9.31

Compound: COc1noc2c1CNCCC2 [Example 5, 3-Methoxy-5,6,7,8-tetrahydro-4H-isoxazolo[4,5-c]azepine Hydrochloride]
- pIC50 [1]: 6.61
- pIC50 [2]: 8.55

Compound: CC(=O)OCC[N+](C)(C)C [AcCh, acetylcholine]
- penetration of the blood-brain barrier ([3]; in vivo): do not penetrate the blood-brain barrier (BBB) easily

— US4960769A, “5,6,7,8-tetrahydro-4H-isoxazolo[4,5-c]-azepine derivatives” (H. Lundbeck A/S, priority 1987, dated 1990)
